Data on two compounds can be found in patent US20240210394A1, “MICROORGANISM CAPTURE FROM ANTIMICROBIAL-CONTAINING SOLUTION” (MOMENTUM BIOSCIENCE LIMITED, priority 2019, published 2024).

One assay deals with E. coli. Description: Confirm PCR multiplex (microbial DNA, GrNeg channel) after microbial capture. In kind it is cell-based. On the set-up: key: Ct values (qPCR cycle threshold).
For another assay, the system named is S. aureus. Description: Total viable count (TVC) plate counts of spiked samples (T0/T2). Type of assay: cell-based. The settings on record: for TVC T2: 100 μL plated after 2 h at 37° C.; for TVC T0: 100 μL plated at time 0. The procedure:
Test dilution(s) of organism was added to blood+antibiotic or blood only at 10 μL per mL of blood (sufficient prepared for experiment requirements). 100 μL plate count sample was taken (TO sample).
The inoculated samples were incubated at 37° C. (static) for 2-hour. 100 μL plate count sample was taken (T2 sample).
For the ‘rescue’ test, 5 mL of spiked blood+abx or blood only was treated with Momentum Capture Beads (Streptavidin-coated, −300 nm beads, Bio estapor, Merk Cat #BE-M 08/0.3) as below: • Momentum Capture Beads diluted in Detergent-free Microbial Binding Buffer (DMBB—Tris+NaCl)—50 μL beads:700 μL DMBB per clean-up • 750 μL of diluted beads added to 50 mL conical centrifuge tube • 5 mL of broth medium added to tube • 5 mL of spiked blood+abx or blood only added to tube • Incubate on ITL TherMix (Integrated Technologies Ltd. Kent, UK), 32.5° C./30 min/1000 rpm—ramped speed protocol • Magnetise on V&P magnet (V&P scientific Inc, CA, US) for 5 min then remove supernatant • Resuspend beads in 1 mL Detergent-free Wash Buffer (DWB—Tris+NaCl) off magnet and transfer to 2 mL Eppendorf flip-top tube on DynaMag-2 magnet (Thermo Fisher Scientific, Life Technologies Ltd. Paisley, UK) • Magnetise for 5 min then remove supernatant • Resuspend beads in 1 mL DWB off magnet then replace on DynaMag-2 magnet • Magnetise for 5 min then remove supernatant • Resuspend beads in 1 mL DWB, add to a fresh, unused blood culture bottle (BioMerieux SA culture bottle) containing standard blood culture growth medium using a vial adapter, and start incubation (adapter removed). • Blood culture bottles are incubated in the automated blood culture cabinet (BacT/ALERT BioMerieux) which records time to positivity. The “Flip” time is when a bottle turns positive as determined by the automated blood culture cabinet. • “Flip” time of each bottle is recorded. • Plate counts (Total Viable Count TVC) are recorded.
Day 2: Prepare ten-fold serial dilution of overnight culture in blood/broth as required • Antibiotic added to whole blood (defibrinated horse blood) at required level • Whole blood as no-antibiotic control • Test dilution(s) of organism added to blood+antibiotic or blood only at 10 μL per mL of blood (sufficient prepared for experiment requirements) • 100 μL plate count sample taken (TO sample) • 2-hour incubation at 37° C. (static), to mimic organism exposure to antimicrobials in the patient • 100 μL plate count sample taken (T2 sample) • 5 mL of spiked blood+abx or blood only added to blood culture bottle (using vial adapter) and incubation started (adapter removed) • 5 mL of spiked blood+abx or blood only (from same source) treated with Momentum Capture Beads as below: • 1. […]
Day 3: Plate counts recorded. […]

[1] abbreviates: S. aureus spike dil 10-3 in blood + Piperacillin 96 ug/ml.
Where [2] appears, read: S. aureus spike dil 10-4 in blood + Piperacillin 96 ug/ml.

Where “and” joins values, the source holds several entries; their conditions need not be identical. Equal values may be shown once.

Consider Sodium polyanethol sulfonate [SPS], for which the “Confirm GrNeg results” value in the assay on E. coli (WB SPS 0.01 %, EC 1-3 replicates) is 27.94 and 29.18 and 28.32; in the assay with E. coli (WB SPS 0.01 %, NSC 1-3 replicates), “NoCt”; in the assay with E. coli (WB SPS 0.02 %, EC 1-3 replicates) it was 29.15 and 28.16 and 29.75; with E. coli (WB SPS 0.02 %, NSC 1-3 replicates), “NoCt”; with E. coli (WB SPS 0.04 %, EC 1-3 replicates) it was 28.71 and 28.75 and 29.82; with E. coli (WB SPS 0.04 %, NSC 1-3 replicates), “NoCt”. Besides, the “Confirm GrNeg results” value was 31.58 and 29.77 and 29.26 in the assay with E. coli (WB SPS 0.06 %, EC 1-3 replicates); “NaCt and NoCt (2×)” with E. coli (WB SPS 0.06 %, NSC 1-3 replicates); 29.20 and 29.80 and 28.87 in the assay with E. coli (WB SPS 0.08 %, EC 1-3 replicates); “NoCt” in the assay with E. coli (WB SPS 0.08 %, NSC 1-3 replicates); 29.27 and 28.65 and 29.61 in the assay on E. coli (WB SPS 0.1 %, EC 1-3 replicates); 47.82 and NoCt (2×) in the assay with E. coli (WB SPS 0.1 %, NSC 1-3 replicates).
For the compound `CCN1CCN(C(=O)N[C@@H](C(=O)N[C@@H]2C(=O)N3[C@@H]2SC(C)(C)[C@@H]3C(=O)O)c2ccccc2)C(=O)C1=O` [Piperacillin], in the assay on S. aureus (setting [1]), the “TVC T2” value amounted to 2 and the “TVC T0” value was 98. Further, in the assay on S. aureus (setting [2]), the “TVC T2” value is 0 and the “TVC T0” value was determined as 15.
